According to US20030207933A1, “Compositions and methods for increasing the sensitivity of apoptosis-resistant tumor cells to inducers of apoptosis” (priority 2002, published 2003):

Key:
[1] = system: HL-60 Bcl-2 cells; assay: DNA fragmentation (release of 3H-labeled DNA fragments) in Bcl-2-transfected HL-60 cells; format: cell-based, human
[2] = system: overexpression of Bcl-2; assay: Comparison with compounds reported to counteract Bcl-2; format: cell-based; conditions: data not shown
Description: W-188 was then compared to other compounds previously reported to counteract Bcl-2 (Marchetti, P., et al., J. Immunol., 1996, 157:4830; Hirsch, T., et al., Exp. Cell Res., 1998, 241:426).

[3] = system: AP24; assay: Etoposide-induced activation of AP24 (AAPVase) in HL-60 and PW leukemia lines; format: cell-based, human; conditions: etoposide 50 μM, 3 h
[4] = Cytotoxicity to normal venous endothelial cells (MTT dye reduction assay); format: cell-based, human; conditions: human, normal venous endothelial cells, etoposide 100 μM, W-188 0 μg/mL; 6 h
[5] = system: HL-60 neo cells; assay: DNA fragmentation (release of 3H-labeled DNA fragments) in vector control HL-60 neo cells; format: cell-based, human
Experimental: The present study evaluated the ability of W-188 to sensitize Bcl-2-overexpressing cells to induce apoptosis. The human myelogenous leukemia, HL-60, and the human B cell leukemia, PW, normally express very low levels of Bcl-2. As a model system, W-188 and various analogs and derivatives were tested in normal HL-60 and PW cells and in Bcl-2-transfected HL-60 and PW cells that overexpress high levels of Bcl-2 (see Gilbert et al., J. Cell Physiol., 1996, 171:299).
As depicted in FIG. 4, HL-60 cells (Panel A) and PW cells (Panel B) cells were exposed to various apoptosis inducers: TNF at 5 ng/ml; etoposide at 20 μM; and UV at 0.08 J/cm^2. The release of 3H-labeled DNA fragments was measured after 5 h. Normal HL-60 and PW cells were equally sensitive to apoptosis inducers as compared with cells that were transfected with vector encoding neomycin resistance (HL-60 neo and PW neo) only. […] W-188 alone was nontoxic. The addition of W-188 to the neo cell lines caused a 1.5-2 fold increase in DNA fragmentation in response to the various apoptosis inducers.

[6] = Body weight of RIF-1 tumor bearing mice; conditions: Dox 5 mg/kg alone; FIG. 15
Description: Groups of five mice each were inoculated s.c. with RIF-1 cells. The tumors were allowed to grow for 12 days to a size of 0.5 cm diameter, which was designated day 0. […] The mice were weighed and the tumor size measured every day.

[7] = system: mice; assay: Multiple dose toxicity with histopathological analysis; format: in vivo; conditions: doxorubicin 5 mg/kg alone
Experimental: In the present study, more extensive toxicity studies with histopathological analysis of seven different tissues was performed on W-143 at a commercial lab.
Groups of six mice (3 male and 3 females) each were given three i.p. injections at two day intervals of vehicle, doxorubicin 5 mg/kg alone, W-143 200 mg/kg alone or both together. On day 5 and day 15 after the last injection, mice were sacrificed, necropsied, and tissue samples processed. Tissues examined include bone marrow, liver, heart, small and large intestine, 1 sex organ, and kidney.

[8] = system: Bcl-2; assay: Western blot for expression of Bcl-2 in RIF-1 tumors in vivo; set-up: species or system mice; conditions: Dox alone; day 15; FIG. 16
Description: Cells were dissociated, lysed, and the nuclei and mitochondria separated by differential centrifugation. RIF-1 cells cultured in vitro were processed in a similar manner as a positive control. Equal amounts of protein extracts were separated by electrophoresis and analyzed by Western blot for expression of Bcl-2. […] The pattern of Bcl-2 expression was similar in the nuclei, although the overall levels were lower than in the mitochondria. […] Most likely, this discrepancy can be explained by the fact that this line is transfected with exogenous Bcl-2, whereas the RIF-1 line expresses endogenous Bcl-2 under control of its natural promoter. […] Alternatively, W-188 and W-143 may differ in their mechanisms of action, although this conclusion seems less likely in view of the structural similarity of these two compounds.

[9] = system: RIF-1 fibrosarcoma; assay: RIF-1 fibrosarcoma tumor growth in vivo; set-up: species or system mice
Description: The present study tested in the ability of W-188 to synergize with Dox and inhibit tumor growth in vivo. The RIF-1 fibrosarcoma model was used because this model has been well-characterized, and naturally expresses high Bcl-2 levels and has a consistent growth pattern (Nahabedian, M. Y., et al., J. Natl. Can. Inst., 1988, 80:739; Chang, M-J., et al., Cancer Res., 1994, 54:5380; Srivastana, M., et al., J. Biol. Chem., 2001, 276:15481).
Groups of five mice each were inoculated s.c. with RIF-1 cells. The tumors were allowed to grow for 12 days to a size of 0.5 cm diameter, which was designated day 0. The mice were then given five i.p. injections every other day with vehicle, Dox 2.5 mg/kg, Dox 5.0 mg/kg, W-188 100 mg/kg, and Dox 5.0 mg/kg+W-188 100 mg/kg. The mice were weighed and the tumor size measured every day.
The protocol was similar to that described for the W-188 experiment in Example 8, except that in this study, mice with established tumors received only three injections of W-143 or Dox every other day starting on day 0.

[10] = Exp 4, etoposide 5 μM + compound 10 μM
[11] = Exp 3, etoposide 5 μM + compound 20 μM
[12] = Exp 2, etoposide 10 μM + compound 10 μM
[13] = Exp 1, etoposide 5 μM + compound 10 μM

Molecule: Cc1ccc(-c2c3nc(c(-c4ccc(C)cc4)c4ccc([nH]4)c(-c4ccc(C)cc4)c4nc(c(-c5ccc(C)cc5)c5ccc2[nH]5)C=C4)C=C3)cc1 [5,10,15,20-tetra-p-tolyl-21H,23H-porphine]
- % DNA Fragmentation [1, 10]: 15%

Molecule: C=CC1=C(C)/C(=C/C2=NC(=C\c3[nH]c(/C=C4\NC(=O)C(C)=C4C=C)c(C)c3CCC(=O)O)/C(CCC(=O)O)=C2C)NC1=O [biliverdin]
- % DNA Fragmentation [1, 11]: 20%

Molecule: CC(C)(C)c1ccc2c(c1)-c1nc3nc(nc4[nH]c(nc5[nH]c(nc-2n1)c1cc(C(C)(C)C)ccc51)c1cc(C(C)(C)C)ccc41)-c1ccc(C(C)(C)C)cc1-3 [2,9,16,23-tetra-tert-butyl-29H, 31H-phthalocyanine]
- % DNA Fragmentation [1, 10]: 0%

Molecule: C=CC1=C(C)/C(=C/c2[nH]c(Cc3[nH]c(/C=C4\NC(=O)C(C)=C4C=C)c(C)c3CCC(=O)O)c(CCC(=O)O)c2C)NC1=O [bilirubin]
- % DNA Fragmentation [1, 12]: 17%

Molecule: C=CC1=C(C)c2cc3[nH]c(cc4nc(cc5[nH]c(cc1n2)c(C)c5CCC(=O)O)C(CCC(=O)O)=C4C)c(C)c3C=C [protoporphyrin IX]
- % DNA Fragmentation [1, 12]: 3%

Molecule: deuterporphyrin IX dimethyl ester
- % DNA Fragmentation [1, 13]: 8%

Molecule: CC(=O)O[C@H]1C(=O)[C@@]2(C)[C@H]([C@H](OC(=O)c3ccccc3)[C@]3(O)C[C@H](OC(=O)[C@H](O)[C@@H](NC(=O)c4ccccc4)c4ccccc4)C(C)=C1C3(C)C)[C@]1(OC(C)=O)CO[C@@H]1C[C@@H]2O [taxol]
- Reversal of the effect of overexpression of Bcl-2, compared with W-188 [2]: inferior to W-188

Molecule: [Co+2].c1ccc2c(c1)-c1nc-2nc2[n-]c(nc3nc(nc4[n-]c(n1)c1ccccc41)-c1ccccc1-3)c1ccccc21 [cobalt (II) pthalocyanine]
- % DNA Fragmentation [1, 13]: 9%

Molecule: COc1cc([C@@H]2c3cc4c(cc3[C@@H](O[C@@H]3O[C@@H]5CO[C@@H](C)O[C@H]5[C@H](O)[C@H]3O)[C@H]3COC(=O)[C@H]23)OCO4)cc(OC)c1O [Etoposide]
- AP24 Activity (AAPVase, nmol/mg/hr) ([3]; HL-60 Bcl-2): 14 nmol/mg/h
- AP24 Activity (AAPVase, nmol/mg/hr) ([3]; HL-60 neo): 100 nmol/mg/h
- AP24 Activity (AAPVase, nmol/mg/hr) ([3]; PW Bcl-2): 12 nmol/mg/h
- AP24 Activity (AAPVase, nmol/mg/hr) ([3]; PW neo): 88 nmol/mg/h
- cytotoxicity at 6 h, 100 μM [4]: 22 ± 3.4%
- % DNA Fragmentation ([5]; Exp 1, etoposide 5 μM alone): 72%
- % DNA Fragmentation ([5]; Exp 2, etoposide 10 μM alone): 57%
- % DNA Fragmentation ([5]; Exp 3, etoposide 5 μM alone): 97%
- % DNA Fragmentation ([5]; Exp 4, etoposide 5 μM alone): 63%
- % DNA Fragmentation ([5]; Exp 5, etoposide 10 μM alone): 57%
- % DNA Fragmentation ([1]; Exp 1, etoposide 5 μM alone): 0%
- % DNA Fragmentation ([1]; Exp 2, etoposide 10 μM alone): 0%
- % DNA Fragmentation ([1]; Exp 3, etoposide 5 μM alone): 24%
- % DNA Fragmentation ([1]; Exp 4, etoposide 5 μM alone): 3%
- % DNA Fragmentation ([1]; Exp 5, etoposide 10 μM alone): 0%

Molecule: CCC(C)N(C)C(=O)c1cc2ccccc2c(-c2ccccc2Cl)n1 (stereo not drawn) [PK11195]
- Reversal of the effect of overexpression of Bcl-2 ([2]; at 20 μM (the highest non-toxic concentration)): completely ineffective

Molecule: Br.Br.CCC1=C(C)c2cc3[nH]c(cc4[nH]c(cc5nc(cc1n2)C(C)=C5CC)c(C)c4CC)c(C)c3CC [etioporphyrin I dihydrobromide]
- % DNA Fragmentation [1, 10]: 25%

Molecule: CC1(C)CC(C#N)CC(C)(C)N1[O] [4-cyano tempo]
- % DNA Fragmentation [1, 13]: 2%

Molecule: C=CC1=C(C)c2cc3[n-]c(cc4[n-]c(cc5nc(cc1n2)C(C)=C5C=C)c(C)c4CCC(=O)O)c(CCC(=O)O)c3C.[Sn+4] [Sn protoporphyrin IX]
- % DNA Fragmentation [1, 11]: 5%

Molecule: C=CC1=C(C)c2cc3[n-]c(cc4[n-]c(cc5nc(cc1n2)C(C)=C5C=C)c(C)c4CCC(=O)O)c(CCC(=O)O)c3C.[Fe+2] [Fe protoporphyrin IX]
- % DNA Fragmentation [1, 11]: 17%

Molecule: N#Cc1nc[nH]c1C#N [4,5-dicyanoimidazole]
- % DNA Fragmentation [1, 13]: 10%

Molecule: C=CC1=C(C)c2cc3[n-]c(cc4[n-]c(cc5nc(cc1n2)C(C)=C5C=C)c(C)c4CCC(=O)O)c(CCC(=O)O)c3C.O.[Fe+2] [hematin]
- % DNA Fragmentation [1, 13]: 2%

Molecule: COc1cccc2c1C(=O)c1c(O)c3c(c(O)c1C2=O)C[C@@](O)(C(=O)CO)C[C@@H]3O[C@H]1C[C@H](N)[C@H](O)[C@H](C)O1 [Dox, doxorubicin, reference compound]
- Body weight [6]: toxic causing a significant weight loss on day 7-8
- Histopathology ([7]; three i.p. injections, day 5): minor vacuolar changes in the liver
- Histopathology ([7]; day 15): all tissues were normal
- Bcl-2 expression in tumor cell mitochondria [8]: expressed high levels of Bcl-2
- Effect on tumor growth ([9]; Dox 5 mg/kg alone, three injections every other day, FIG. 14): only a small effect on tumor growth
- Effect on tumor growth ([9]; Dox alone at 2.5 or 5 mg/kg, five i.p. injections every other day, FIG. 11): very little effect on tumor growth

Molecule: Cl.Cl.Cl.Cl.O.O=C(O)CN1CCCN(CC(=O)O)CCN(CC(=O)O)CCCN(CC(=O)O)CC1 [1,4,8,11-tetraazacyclotetra-decane-1,4,8,11-tetraacetic acid tetrahydrochioride hydrate]
- % DNA Fragmentation [1, 13]: 0%

Molecule: C1=Cc2cc3ccc(cc4ccc(cc5nc(cc1n2)C=C5)[nH]4)[nH]3 [porphyin]
- % DNA Fragmentation [1, 12]: 10%

Molecule: CC1=C(CCC(=O)O)c2cc3nc(cc4[nH]c(cc5[nH]c(cc1n2)c(C)c5CCC(=O)O)c(CCC(=O)O)c4C)C(CCC(=O)O)=C3C [coproporphyrin]
- % DNA Fragmentation [1, 12]: 15%

Molecule: CCC1=C(C)C(=O)N/C1=C\c1[nH]c(C)c(CC)c1C [W-145]
- % DNA Fragmentation ([1]; Exp 5, etoposide 10 μM + compound 10 μM): 28%

Molecule: C=CC1=C(C)c2cc3[n-]c(cc4[n-]c(cc5nc(cc1n2)C(C)=C5C=C)c(C)c4CCC(=O)O)c(CCC(=O)O)c3C.[Zn+2] [Zn protoporphyrin IX]
- % DNA Fragmentation [1, 11]: 19%

Molecule: Cc1nc(-c2nc(C)c(C)[nH]2)[nH]c1C [2,2′-bis(4,5-dimethyl-imidazole)]
- % DNA Fragmentation [1, 13]: 2%
